Results: ChEMBL document CHEMBL1201862, “PubChem BioAssay data set” (2004)
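Cultured in 96-well plates, cells were exposed to test compound for 48 hours across five concentrations. GI50 marks 50% less growth.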 Active and inactive are the calls of the source. Cut-off read from the data, not from the text of the source: active = GI50 up to about 1.1 µM and inactive = higher.

Experiments:
Assay in all cases: NCI tumour cell line growth inhibition, 48 h
DU-145 = system: DU-145
786-0 = system: 786-0
COLO 205 = system: COLO 205
Malme-3M = system: Malme-3M
SNB-19 = system: SNB-19
SR = system: SR
T47D = system: T47D
LOX IMVI = system: LOX IMVI
A498 = system: A498
NCI-H460 = system: NCI-H460
MDA-MB-435 = system: MDA-MB-435
MOLT-4 = system: MOLT-4
CAKI-1 = system: CAKI-1
BT-549 = system: BT-549
RXF 393 = system: RXF 393
NCI-H522 = system: NCI-H522
OVCAR-8 = system: OVCAR-8
PC-3 = system: PC-3
SK-OV-3 = system: SK-OV-3
HCT-116 = system: HCT-116
CCRF-CEM = system: CCRF-CEM
MDA-MB-231 = system: MDA-MB-231
HOP-92 = system: HOP-92
HL-60 = system: HL-60
IGROV-1 = system: IGROV-1
SN12C = system: SN12C
UACC-62 = system: UACC-62
SW-620 = system: SW-620
EKVX = system: EKVX
KM12 = system: KM12
U-251 = system: U-251
UACC-257 = system: UACC-257
HOP-62 = system: HOP-62
NCI-H226 = system: NCI-H226
OVCAR-5 = system: OVCAR-5
NCI-H23 = system: NCI-H23
HCT-15 = system: HCT-15
UO-31 = system: UO-31
M14 = system: M14
OVCAR-4 = system: OVCAR-4
HT-29 = system: HT-29
SK-MEL-5 = system: SK-MEL-5
SF-295 = system: SF-295
SF-539 = system: SF-539
SF-268 = system: SF-268
MDA-N = system: MDA-N
MCF7 = system: MCF7
K562 = system: K562
NCI/ADR-RES = system: NCI/ADR-RES
SNB-75 = system: SNB-75
A549 = system: A549
Hs-578T = system: Hs-578T
ACHN = system: ACHN
SK-MEL-2 = system: SK-MEL-2
TK-10 = system: TK-10
RPMI-8226 = system: RPMI-8226
OVCAR-3 = system: OVCAR-3
SK-MEL-28 = system: SK-MEL-28

For CN1CCCN(C)C1c1cc([N+](=O)[O-])ccc1O, the GI50 (DU-145) was 36.9 µM (inactive), the GI50 (786-0) was 33 µM (inactive) and the GI50 (COLO 205) was 56.1 µM (inactive). For the same compound, the GI50 (Malme-3M) was 23.5 µM (inactive), the GI50 (SNB-19) was 30.8 µM (inactive) and the GI50 (SR) was 21.6 µM (inactive). The GI50 (T47D) was 47.6 µM (inactive), the GI50 (LOX IMVI) was 19.4 µM (inactive) and the GI50 (A498) was > 100 µM (inactive). The GI50 (NCI-H460) was 30.1 µM (inactive), the GI50 (MDA-MB-435) was 31.2 µM (inactive) and the GI50 (MOLT-4) was 22.1 µM (inactive). The GI50 (CAKI-1) was > 100 µM (inactive), the GI50 (BT-549) was 39.5 µM (inactive) and the GI50 (RXF 393) was 41.4 µM (inactive). For the same compound, the GI50 (NCI-H522) was 33.9 µM (inactive), the GI50 (OVCAR-8) was 35.6 µM (inactive) and the GI50 (PC-3) was 23.6 µM (inactive). For the same compound, the GI50 (SK-OV-3) was 34.1 µM (inactive), the GI50 (HCT-116) was 32.6 µM (inactive) and the GI50 (CCRF-CEM) was 22 µM (inactive). The GI50 (MDA-MB-231) was 24.9 µM (inactive), the GI50 (HOP-92) was 20.2 µM (inactive) and the GI50 (HL-60) was 21.5 µM (inactive). The GI50 (IGROV-1) was 26.3 µM (inactive), the GI50 (SN12C) was 31.6 µM (inactive) and the GI50 (UACC-62) was 16.6 µM (inactive). The GI50 (SW-620) was 70.6 µM (inactive), the GI50 (EKVX) was 38.6 µM (inactive) and the GI50 (KM12) was 36.6 µM (inactive). For the same compound, the GI50 (U-251) was 26.5 µM (inactive), the GI50 (UACC-257) was 19 µM (inactive) and the GI50 (HOP-62) was 40.7 µM (inactive). The GI50 (NCI-H226) was 34.1 µM (inactive), the GI50 (OVCAR-5) was > 100 µM (inactive) and the GI50 (NCI-H23) was 89.1 µM (inactive). The GI50 (HCT-15) was 43.6 µM, the GI50 (UO-31) was 0.436 µM (active) and the GI50 (M14) was 19.1 µM (inactive). The GI50 (OVCAR-4) was 32 µM (inactive), the GI50 (HT-29) was 33.8 µM (inactive) and the GI50 (SK-MEL-5) was 19.7 µM (inactive). The GI50 (SF-295) was 37.3 µM (inactive), the GI50 (SF-539) was 25.2 µM (inactive) and the GI50 (SF-268) was 34.2 µM (inactive). The GI50 (MDA-N) was 40.7 µM (inactive), the GI50 (MCF7) was 19.8 µM (inactive) and the GI50 (K562) was 39 µM (inactive). For the same compound, the GI50 (NCI/ADR-RES) was 35.6 µM (inactive), the GI50 (SNB-75) was 31.1 µM (inactive) and the GI50 (A549) was > 100 µM (inactive). The GI50 (Hs-578T) was 26.1 µM (inactive), the GI50 (ACHN) was 20.9 µM (inactive) and the GI50 (SK-MEL-2) was 31 µM (inactive). The GI50 (TK-10) was 56.1 µM (inactive), the GI50 (RPMI-8226) was 31 µM (inactive) and the GI50 (OVCAR-3) was 41.8 µM (inactive). For the same compound, the GI50 (SK-MEL-28) was 27.9 µM (inactive).
For CN(C)N1C(=O)CC2(CCN(CCCC(=O)c3ccc(F)cc3)CC2)C1=O, the GI50 (DU-145) was > 100 µM (inactive), the GI50 (786-0) was > 100 µM (inactive) and the GI50 (COLO 205) was > 100 µM (inactive). For the same compound, the GI50 (Malme-3M) was > 100 µM (inactive), the GI50 (SNB-19) was > 100 µM (inactive) and the GI50 (SR) was > 100 µM (inactive). For the same compound, the GI50 (T47D) was > 100 µM (inactive), the GI50 (LOX IMVI) was > 100 µM (inactive) and the GI50 (A498) was > 100 µM (inactive). The GI50 (NCI-H460) was > 100 µM (inactive), the GI50 (MDA-MB-435) was > 100 µM (inactive) and the GI50 (MOLT-4) was > 100 µM (inactive). For the same compound, the GI50 (CAKI-1) was > 100 µM (inactive), the GI50 (BT-549) was > 100 µM (inactive) and the GI50 (RXF 393) was > 100 µM (inactive). The GI50 (NCI-H522) was > 100 µM (inactive), the GI50 (OVCAR-8) was > 100 µM (inactive) and the GI50 (PC-3) was > 100 µM (inactive). The GI50 (SK-OV-3) was > 100 µM (inactive), the GI50 (HCT-116) was > 100 µM (inactive) and the GI50 (MDA-MB-231) was > 100 µM (inactive). For the same compound, the GI50 (HL-60) was > 100 µM (inactive), the GI50 (IGROV-1) was > 100 µM (inactive) and the GI50 (SN12C) was > 100 µM (inactive). For the same compound, the GI50 (UACC-62) was > 100 µM (inactive), the GI50 (SW-620) was > 100 µM (inactive) and the GI50 (KM12) was > 100 µM (inactive). The GI50 (U-251) was > 100 µM (inactive), the GI50 (UACC-257) was > 100 µM (inactive) and the GI50 (HOP-62) was > 100 µM (inactive). For the same compound, the GI50 (NCI-H226) was > 100 µM (inactive), the GI50 (OVCAR-5) was > 100 µM (inactive) and the GI50 (NCI-H23) was > 100 µM (inactive). For the same compound, the GI50 (HCT-15) was over 100 µM, the GI50 (UO-31) was > 100 µM (inactive) and the GI50 (M14) was > 100 µM (inactive). The GI50 (HT-29) was > 100 µM (inactive), the GI50 (SK-MEL-5) was > 100 µM (inactive) and the GI50 (SF-295) was > 100 µM (inactive). For the same compound, the GI50 (SF-539) was > 100 µM (inactive), the GI50 (SF-268) was > 100 µM (inactive) and the GI50 (MDA-N) was > 100 µM (inactive). The GI50 (MCF7) was > 100 µM (inactive), the GI50 (K562) was > 100 µM (inactive) and the GI50 (NCI/ADR-RES) was > 100 µM (inactive). For the same compound, the GI50 (SNB-75) was > 100 µM (inactive), the GI50 (A549) was > 100 µM (inactive) and the GI50 (Hs-578T) was > 100 µM (inactive). For the same compound, the GI50 (ACHN) was > 100 µM (inactive), the GI50 (SK-MEL-2) was > 100 µM (inactive) and the GI50 (TK-10) was > 100 µM (inactive). The GI50 (RPMI-8226) was > 100 µM (inactive), the GI50 (OVCAR-3) was > 100 µM (inactive) and the GI50 (SK-MEL-28) was > 100 µM (inactive).
